From ChEMBL document CHEMBL1764947, “Symmetric double-headed aminopyridines, a novel strategy for potent and membrane-permeable inhibitors of neuronal nitric oxide synthase” (J Med Chem, 2011)

Columns and labels:
[1] = target: Nitric oxide synthase 1 (Rattus norvegicus, UniProt P29476); test: Inhibition of rat recombinant nNOS expressed in Escherichia coli by UV-vis spectrometric analysis
[2] = target: T1, Nitric oxide synthase 3 (Bos taurus, UniProt P29473); test: Inhibition of bovine recombinant eNOS expressed in Escherichia coli by UV-vis spectrometric analysis
T1 sequence (P29473 whole entry): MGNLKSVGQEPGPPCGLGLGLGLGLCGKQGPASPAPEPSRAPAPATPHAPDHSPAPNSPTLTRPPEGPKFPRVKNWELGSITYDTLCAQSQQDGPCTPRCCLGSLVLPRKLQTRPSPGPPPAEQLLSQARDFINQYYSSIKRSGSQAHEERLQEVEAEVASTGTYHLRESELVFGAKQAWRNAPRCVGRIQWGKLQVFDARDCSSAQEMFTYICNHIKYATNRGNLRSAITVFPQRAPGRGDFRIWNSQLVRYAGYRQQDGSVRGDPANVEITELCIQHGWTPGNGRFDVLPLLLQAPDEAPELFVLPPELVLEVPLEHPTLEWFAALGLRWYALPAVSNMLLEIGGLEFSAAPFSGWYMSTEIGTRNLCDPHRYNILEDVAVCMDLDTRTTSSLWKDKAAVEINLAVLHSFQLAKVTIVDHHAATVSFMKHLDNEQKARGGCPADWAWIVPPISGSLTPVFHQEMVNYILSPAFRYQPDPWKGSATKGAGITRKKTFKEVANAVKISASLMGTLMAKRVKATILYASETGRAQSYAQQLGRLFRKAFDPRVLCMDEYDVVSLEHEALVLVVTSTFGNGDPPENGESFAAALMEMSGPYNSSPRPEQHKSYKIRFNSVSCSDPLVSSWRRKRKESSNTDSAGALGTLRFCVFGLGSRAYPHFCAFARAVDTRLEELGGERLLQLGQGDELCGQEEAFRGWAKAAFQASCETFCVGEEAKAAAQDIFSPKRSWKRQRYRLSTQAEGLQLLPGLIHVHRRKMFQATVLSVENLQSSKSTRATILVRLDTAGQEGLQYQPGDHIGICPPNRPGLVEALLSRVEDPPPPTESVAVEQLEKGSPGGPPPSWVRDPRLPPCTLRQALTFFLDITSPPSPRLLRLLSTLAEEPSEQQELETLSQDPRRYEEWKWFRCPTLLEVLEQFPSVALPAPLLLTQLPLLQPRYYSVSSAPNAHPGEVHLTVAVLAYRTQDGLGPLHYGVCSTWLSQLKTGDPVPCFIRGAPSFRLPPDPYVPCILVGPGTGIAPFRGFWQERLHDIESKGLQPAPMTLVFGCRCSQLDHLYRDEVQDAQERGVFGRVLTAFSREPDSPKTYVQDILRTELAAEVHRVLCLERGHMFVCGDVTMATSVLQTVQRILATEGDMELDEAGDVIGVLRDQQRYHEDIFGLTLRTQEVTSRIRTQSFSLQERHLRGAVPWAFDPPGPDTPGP

[3] = target: T2, Nitric oxide synthase, inducible (Mus musculus, UniProt P29477); test: Inhibition of mouse macrophage recombinant iNOS expressed in Escherichia coli by UV-vis spectrometric analysis
T2 sequence (P29477 whole entry): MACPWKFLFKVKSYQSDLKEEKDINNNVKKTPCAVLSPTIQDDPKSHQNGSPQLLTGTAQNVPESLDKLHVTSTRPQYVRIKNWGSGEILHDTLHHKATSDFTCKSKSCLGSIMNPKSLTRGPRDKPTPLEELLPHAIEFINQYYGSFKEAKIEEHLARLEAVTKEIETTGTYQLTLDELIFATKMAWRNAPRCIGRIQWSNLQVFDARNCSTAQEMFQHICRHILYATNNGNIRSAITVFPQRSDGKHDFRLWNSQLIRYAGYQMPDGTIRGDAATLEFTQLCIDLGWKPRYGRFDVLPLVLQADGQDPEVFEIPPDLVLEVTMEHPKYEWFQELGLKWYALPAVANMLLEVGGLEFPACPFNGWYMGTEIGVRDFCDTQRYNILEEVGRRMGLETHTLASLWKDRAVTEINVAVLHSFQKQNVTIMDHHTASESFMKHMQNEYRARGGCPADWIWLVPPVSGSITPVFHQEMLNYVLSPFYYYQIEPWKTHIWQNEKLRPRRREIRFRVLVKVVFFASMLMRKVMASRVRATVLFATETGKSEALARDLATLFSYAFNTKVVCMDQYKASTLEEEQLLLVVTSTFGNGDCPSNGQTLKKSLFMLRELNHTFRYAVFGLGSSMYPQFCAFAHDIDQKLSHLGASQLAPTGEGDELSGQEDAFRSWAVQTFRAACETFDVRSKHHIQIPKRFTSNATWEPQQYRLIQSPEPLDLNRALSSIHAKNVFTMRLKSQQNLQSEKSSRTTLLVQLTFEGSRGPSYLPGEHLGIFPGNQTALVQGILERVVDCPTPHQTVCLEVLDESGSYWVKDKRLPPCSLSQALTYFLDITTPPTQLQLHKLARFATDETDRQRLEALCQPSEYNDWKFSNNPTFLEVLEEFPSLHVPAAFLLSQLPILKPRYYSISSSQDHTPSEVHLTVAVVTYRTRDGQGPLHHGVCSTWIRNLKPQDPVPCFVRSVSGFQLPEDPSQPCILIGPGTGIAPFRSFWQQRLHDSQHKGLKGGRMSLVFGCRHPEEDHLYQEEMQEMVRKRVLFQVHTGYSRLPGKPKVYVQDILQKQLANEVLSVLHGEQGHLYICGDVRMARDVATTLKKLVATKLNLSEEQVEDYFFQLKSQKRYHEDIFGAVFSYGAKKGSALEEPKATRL

[4] = Selectivity ratio of Ki for bovine recombinant eNOS to Ki for rat recombinant nNOS
[5] = Selectivity ratio of Ki for murine macrophage recombinant iNOS to Ki for rat recombinant nNOS

Nitric oxide synthase 1, sequence (P29476 whole entry): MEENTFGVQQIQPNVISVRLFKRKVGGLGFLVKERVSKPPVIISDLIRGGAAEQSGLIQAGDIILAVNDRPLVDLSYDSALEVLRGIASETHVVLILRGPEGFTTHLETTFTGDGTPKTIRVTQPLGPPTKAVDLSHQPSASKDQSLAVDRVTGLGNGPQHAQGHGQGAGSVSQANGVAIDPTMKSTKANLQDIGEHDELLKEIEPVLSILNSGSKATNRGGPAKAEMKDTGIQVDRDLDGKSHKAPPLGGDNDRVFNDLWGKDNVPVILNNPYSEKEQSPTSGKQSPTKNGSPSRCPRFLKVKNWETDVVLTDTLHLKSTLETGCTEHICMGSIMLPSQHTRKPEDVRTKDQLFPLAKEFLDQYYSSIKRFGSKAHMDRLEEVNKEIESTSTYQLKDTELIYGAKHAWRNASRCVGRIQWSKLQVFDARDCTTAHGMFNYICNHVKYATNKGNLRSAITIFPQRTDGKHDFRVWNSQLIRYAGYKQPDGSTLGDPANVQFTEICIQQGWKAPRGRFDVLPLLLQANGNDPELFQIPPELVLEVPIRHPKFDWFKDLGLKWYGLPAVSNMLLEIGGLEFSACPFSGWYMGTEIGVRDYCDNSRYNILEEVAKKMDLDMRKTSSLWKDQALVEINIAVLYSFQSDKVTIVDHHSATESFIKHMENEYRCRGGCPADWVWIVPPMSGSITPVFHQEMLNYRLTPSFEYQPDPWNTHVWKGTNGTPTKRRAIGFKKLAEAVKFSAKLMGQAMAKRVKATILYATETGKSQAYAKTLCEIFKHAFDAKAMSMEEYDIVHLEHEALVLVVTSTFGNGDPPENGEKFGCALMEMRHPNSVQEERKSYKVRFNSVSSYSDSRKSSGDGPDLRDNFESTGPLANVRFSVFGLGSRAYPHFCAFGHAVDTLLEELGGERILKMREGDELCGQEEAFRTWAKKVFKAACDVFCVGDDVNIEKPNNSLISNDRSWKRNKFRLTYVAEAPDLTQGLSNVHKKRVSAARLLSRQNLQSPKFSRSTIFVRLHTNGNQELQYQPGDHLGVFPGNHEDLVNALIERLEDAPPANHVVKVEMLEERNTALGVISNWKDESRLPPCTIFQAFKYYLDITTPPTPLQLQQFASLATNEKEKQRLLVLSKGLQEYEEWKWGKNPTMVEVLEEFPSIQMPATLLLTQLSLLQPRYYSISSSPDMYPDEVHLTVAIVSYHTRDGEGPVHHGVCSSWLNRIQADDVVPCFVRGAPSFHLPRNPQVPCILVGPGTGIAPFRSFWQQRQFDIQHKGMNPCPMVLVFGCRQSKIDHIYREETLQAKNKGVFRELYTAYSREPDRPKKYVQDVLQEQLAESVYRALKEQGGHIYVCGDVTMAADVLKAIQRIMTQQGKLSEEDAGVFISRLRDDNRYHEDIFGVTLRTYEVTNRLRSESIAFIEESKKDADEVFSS

| Ki [1] [µM] | Compound | Ki [2] [µM] | Ki [3] [µM] | Ratio Ki [4] | Ratio Ki [5] |
| --- | --- | --- | --- | --- | --- |
| 0.195 | Cc1cc(N)nc(CCc2cccc(CCc3cc(C)nc(N)c3)n2)c1 | 20 | 12.6 | – | – |
| > 1 | Cc1cc(CCc2cccc(CCc3cc(C)nc(N)c3)c2)cc(N)n1 | – | – | – | – |
| > 1 | Cc1cc(C)nc(NCc2ccc3cc(CNc4cc(C)cc(C)n4)ccc3c2)c1 | – | – | – | – |
| > 1 | Cc1cc(N)nc(CCc2ccc3ccc(CCc4cc(C)nc(N)c4)cc3c2)c1 | – | – | – | – |

Further lines, the molecule ahead of its results:

| Compound | Ki [1] [µM] | Ki [2] [µM] | Ki [3] [µM] | Ratio Ki [4] | Ratio Ki [5] |
| --- | --- | --- | --- | --- | --- |
| Cc1cc(N)nc(CCc2ccc3ccc(CCc4cc(C)cc(N)n4)cc3c2)c1 | – | – | – | 14.9 | 20.1 |
| Cc1cc(N)nc(CCc2cccc(CCc3cc(C)nc(N)c3)c2)c1 | – | – | – | 111 | 71.8 |
| Cc1cc(N)nc(CCc2cc(N)cc(CCc3cc(C)cc(N)n3)c2)c1 | 0.085 | 4.95 | 3.4 | 58 | 40 |
| Cc1cc(N)nc(CCc2cccc(CCc3cc(C)cc(N)n3)n2)c1 | – | – | – | 95 | 48 |
| Cc1cc(N)nc(CCc2ccc3cc(CCc4cc(C)cc(N)n4)ccc3c2)c1 | – | – | – | 7.22 | 9.42 |
| Cc1cc(N)nc(CCc2ccc(CCc3cc(C)cc(N)n3)cc2)c1 | – | – | – | 24.6 | 24.8 |
| Cc1cc(N)nc(CCc2cncc(CCc3cc(C)nc(N)c3)c2)c1 | – | – | – | 156 | 19 |
